Experimental data: patent US4959361A, “Triazolo(4,3-A)(1,4)benzodiazepines and thieno (3,2-F)(1,2,4)triazolo(4,3-A)(1,4)diazepine compounds which have useful activity as platelet activating factor (PAF) antagonists” (Hoffmann-La Roche Inc., priority 1988, dated 1990)
Read-outs that look alike come from different tables or passages of the source.

What was measured:
[1] = biological target: T1, PAF-binding, dog platelets (Canis lupus familiaris, UniProt A0A8I3NSH0); assay: PAF binding assay (radiolabelled H-PAF, washed dog platelets); conditions: 10 minutes at room temperature, read-out: PAF-binding IC-50
T1 construct: dog platelets; from tissue; host or cells: washed platelets from citrated dog blood
T1 sequence (A0A8I3NSH0 1-343): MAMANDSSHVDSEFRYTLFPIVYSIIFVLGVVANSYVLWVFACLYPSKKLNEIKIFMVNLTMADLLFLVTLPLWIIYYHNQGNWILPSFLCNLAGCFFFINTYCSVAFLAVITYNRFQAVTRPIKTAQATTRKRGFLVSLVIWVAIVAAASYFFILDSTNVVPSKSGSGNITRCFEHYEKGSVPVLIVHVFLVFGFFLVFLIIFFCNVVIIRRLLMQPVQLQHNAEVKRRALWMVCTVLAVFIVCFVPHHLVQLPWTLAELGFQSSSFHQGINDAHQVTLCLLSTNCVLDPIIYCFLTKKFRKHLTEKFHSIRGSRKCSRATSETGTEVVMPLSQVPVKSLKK
Protocol: The binding assay was done in […] polyethylene microcentrifuge tubes (Beckman) containing 50 μl of an oil mixture of 2 parts Siliconol AR200 (Serva): 1 part Silicone Fluid (Arthur H. Thoma). Buffer, standards, or analogs (150 μl total volume) were added to the tubes. Radiolabelled H-PAF (50 μl) was then added to the tubes. The reaction was started by the addition of 50 μl of dog platelets (2×10^7 platelets). The tubes were capped, inverted several times to mix, and incubated for 10 minutes at room temperature. The platelets were separated from the incubation mixture by centrifuging 1 minute in a Beckman Microfuge B centrifuge. The tip of the microfuge tube was cut off, and the platelets were washed out of the tip with 200 μl of 50% methanol (Burdick and Jackson). Aquasol (NEN, 10 ml) was added and the radioactivity in the samples was determined using an LS 8100 Beckman liquid scintillation counter linked to a Techtran tape recorder Data was processed through an in-house computer system. Alternatively, radioactivity was determined using a Searle Mark III liquid scintillation counter linked to a Iso-Data microprocessor.
(b) preparation of platelets
Blood was collected from anesthesized or unanesthesized dogs into 50 ml plastic centrifuge tubes containing 3.8% sodium citrate as the anticoagulant (1 volume of citrate/9 volumes of blood). The red cells were removed by centrifugation for 15 minutes at 600 rpm (100-125 g) at room temperature. An aliquot of the supernatant platelet rich plasma (PRP) was saved for cell counting and the remainder was acidified to pH 6.5 with 0.15M citric acid. The platelet pellet was obtained after a 10 minute centrifugation at 2000 rpm (1000 g) at room temperature. Washed platelets were prepared by resuspending the platelet pellet once with pBS containing 1 mM EDTA, centrifuging as noted, and then resuspending the platelets in 0.1% BSA pBS. An aliquot of the washed platelets was counted. Platelets used for binding assays were diluted to 2×10^7 platelets/assay tube (4×10^8 platelets/ml). platelet countinq was done using a Royco Cell-Crit 921.

[2] = system: PAF Induced Bronchoconstriction; assay: PAF induced bronchoconstriction assay, oral testing; format: in vivo, guinea pig; conditions: Cavia porcellus, 2 hr; for ED50: p.o., read-out: Bronchoconstriction ID-50 p.o. 2 hr; for inhibition in vivo at 3 mg/kg: Table II (*), 3 mg/kg p.o.
[3] = system: PAF Induced Bronchoconstriction; assay: PAF induced bronchoconstriction assay, intravenous testing; format: in vivo, guinea pig; conditions: for ED50: Cavia porcellus, iv, 1 min, i.v., 1 minute pretreatment, PAF 1 μg/kg i.v., read-out: Bronchoconstriction ID-50 i.v.; for % inhibition of bronchoconstriction: Table II (*), at 0. mg/kg i.v. (dose digit cut off)
Protocol: Male animals (Hartlet Strain, 400-500 g were anesthetized with urethane (2 g/kg, i.p.). Each animals' trachea was cannulated and the guinea pigs were respirated using a Harvard small animal rodent respirator (3.0 cc stroke volume, 40 breaths per min.). Tracheal pressure was recorded from a cannula inserted in the trachea and connected to a Statham pressure transducer.
The jugular vein was cannulated for administering compounds. Spontaneous breathing was arrested with succinylcholine (1.2 mg/kg, i.v.) administered 2 minutes prior to intravenous injection of platelet activating factor PAF).
For the intravenous testing, the guinea pig is given a 1-minute pretreatment with propranolol at a dose of 0.1 mg/kg intravenously. The test compound is administered with a 1 minute pretreatment prior to intravenous challenge with PAF. The animal is then challenged with a 1 μg/kg intravenous dose of PAF and the change in tracheal pressure is measured.
The change in tracheal pressure is determined by subtracting the steady state baseline achieved after administration of succinylcholine from the peak broncho. constriction seen after challenge with PAF. The mean is calculated for each test compound and compared to the mean of the control animals to give the percent inhibition of bronchoconstriction. The standard error is calculated as the standard error of the mean.

[4] = Table I, triazolothienodiazepines
[5] = po, Table I, at a dose of 0.3 mg/kg p.o.
[6] = Table II, triazolobenzodiazepines
[7] = Table II (**), at an oral dose of 0.3 mg/kg

| SMILES | IC50 [1, 4] | ED50 ([3]; Table I) | IC50 [1, 6] | other results |
| --- | --- | --- | --- | --- |
| Cc1nnc2n1-c1sc(C#CCN3C(=O)c4cccc5cccc(c45)C3=O)cc1C(c1ccccc1Cl)=NC2 | 12 nM | < 0.1 mg/kg |  | ED50 ([2]; po, Table I): 0.025 mg/kg |
| Cc1nnc2n1-c1sc(C#CCN3C(=O)C(=O)c4ccccc43)cc1C(c1ccccc1Cl)=NC2 | 7 nM | < 0.1 mg/kg |  | ED50 ([2]; po, Table I): 0.06 mg/kg |
| Cc1nnc2n1-c1sc(C#CCN3C(=O)c4cccc5cccc3c45)cc1C(c1ccccc1Cl)=NC2 | 5 nM | < 0.1 mg/kg |  | ED50 ([2]; po, Table I): 0.042 mg/kg |
| Cc1nnc2n1-c1sc(C#C[Si](C)(C)C)cc1C(c1ccccc1Cl)=NC2 | 20 nM | 0.28 mg/kg |  |  |
| C#Cc1cc2c(s1)-n1c(C)nnc1CN=C2c1ccccc1Cl | 10 nM | 0.02 mg/kg |  | inhibition in vivo at 0.3 mg/kg [2, 5]: 17% |
| Cc1nnc2n1-c1sc(C#CCn3cnc4ccccc43)cc1C(c1ccccc1Cl)=NC2 | 4.5 nM |  |  | ED50 ([2]; po, Table I): 0.12 mg/kg |
| Cc1nnc2n1-c1sc(C#CCN3C(=O)Cc4ccccc43)cc1C(c1ccccc1Cl)=NC2 | 3 nM |  |  | ED50 ([2]; po, Table I): 0.05 mg/kg |
| Cc1nnc2n1-c1sc(C#CCN3C(=O)c4ccccc4S3(=O)=O)cc1C(c1ccccc1Cl)=NC2 | 4 nM |  |  | inhibition in vivo at 0.3 mg/kg [2, 5]: 27% |
| Cc1nnc2n1-c1sc(C#CCn3nc4ccccn4c3=O)cc1C(c1ccccc1Cl)=NC2 | 11 nM |  |  | inhibition in vivo at 0.3 mg/kg [2, 5]: 79% |
| Cc1nnc2n1-c1sc(C#CCn3ncc4ccccc43)cc1C(c1ccccc1Cl)=NC2 | 1 nM | 0.002 mg/kg |  | ED50 ([2]; po, Table I): 0.015 mg/kg |
| Cc1nnc2n1-c1sc(C#CCN3C(=O)COc4ccccc43)cc1C(c1ccccc1Cl)=NC2 | 0.7 nM | 0.007 mg/kg |  | ED50 ([2]; po, Table I): 0.019 mg/kg |
| Cc1nnc2n1-c1sc(C#CCn3cnc4c3c(=O)n(C)c(=O)n4C)cc1C(c1ccccc1Cl)=NC2 | 20 nM | 0.043 mg/kg |  | inhibition in vivo at 0.3 mg/kg [2, 5]: 27% |
| Cc1nnc2n1-c1sc(C#CCn3c(=O)c4c(ncn4C)n(C)c3=O)cc1C(c1ccccc1Cl)=NC2 | 7 nM | 0.018 mg/kg |  | inhibition in vivo at 0.3 mg/kg [2, 5]: 38% |
| Cc1nnc2n1-c1sc(C#CCOc3ccccc3)cc1C(c1ccccc1Cl)=NC2 |  | 0.006 mg/kg |  | inhibition in vivo at 0.3 mg/kg [2, 5]: 67% |
| Cc1c(C)c2c(c(C)c1O)CCC(C)(C#Cc1cc3c(s1)-n1c(C)nnc1CN=C3c1ccccc1Cl)O2 (centres unmarked) | 45 nM | 0.027 mg/kg |  |  |
| Cc1nnc2n1-c1sc(C#Cc3ccccc3)cc1C(c1ccccc1Cl)=NC2 | 100 nM | > 0.1 mg/kg |  |  |
| Cc1nnc2n1-c1sc(C#CCn3c(=O)c4ccccc4c4ccccc43)cc1C(c1ccccc1Cl)=[N+]([O-])C2 | 15 nM | 0.017 mg/kg |  |  |
| Cc1nnc2n1-c1sc(C#CCn3c(=O)c4ccccc4c4ccccc43)cc1C(c1ccccc1Cl)=NC2O (centres unmarked) | 25 nM | 0.022 mg/kg |  |  |
| Cc1nnc2n1-c1sc(C#CCn3c(=O)c4ccccc4c(=O)c4ccccc43)cc1C(c1ccccc1Cl)=NC2 |  | 0.008 mg/kg |  | ED50 ([2]; po, Table I): 0.026 mg/kg |
| Cc1nnc2n1-c1sc(C#CCN3C(=O)COc4cc(F)ccc43)cc1C(c1ccccc1Cl)=NC2 |  | 0.005 mg/kg |  | ED50 ([2]; po, Table I): 0.016 mg/kg |
| Cc1nnc2n1-c1sc(C#CCN3CCc4ccccc4C3=O)cc1C(c1ccccc1Cl)=NC2 |  | 0.008 mg/kg |  | ED50 ([2]; po, Table I): 0.016 mg/kg |
| Cc1nnc2n1-c1sc(C#CCn3c(=O)c4cc(Cl)ccc4c4ccc(Cl)cc43)cc1C(c1ccccc1Cl)=NC2 |  | 0.008 mg/kg |  |  |
| Cc1nnc2n1-c1sc(C#CCn3c4ccccc4c(=O)c4ccccc43)cc1C(c1ccccc1Cl)=NC2 |  | 0.01 mg/kg |  |  |
| Cc1nnc2n1-c1ccc(C#CCN3C(=O)c4cccc5cccc(c45)C3=O)cc1C(c1ccccc1Cl)=NC2 |  |  |  | inhibition in vivo at 3 mg/kg ([2]; po): 99% |

| SMILES | IC50 [1, 4] | ED50 ([3]; Table I) | IC50 [1, 6] | other results |
| --- | --- | --- | --- | --- |
| Cc1nnc2n1-c1ccc(C#CCn3c(=O)oc4ccccc43)cc1C(c1ccccc1Cl)=NC2 |  |  | 20 nM | inhibition in vivo at 3 mg/kg ([2]; po): 91% |
| Cc1nnc2n1-c1ccc(C#CCn3cnc4ccccc43)cc1C(c1ccccc1Cl)=NC2 |  |  | 15 nM |  |
| Cc1nnc2n1-c1ccc(C#CCN3C(=O)CSc4ccccc43)cc1C(c1ccccc1F)=NC2 |  |  |  | inhibition in vivo at 3 mg/kg ([2]; po): 99%; % inhibition of bronchoconstriction [3]: 99% |
| Cc1nnc2n1-c1ccc(C#CCN3C(=O)COc4ccccc43)cc1C(c1ccccc1F)=NC2 |  |  |  | inhibition in vivo at 3 mg/kg ([2]; po): 98%; % inhibition of bronchoconstriction [3]: 100% |
| Cc1nnc2n1-c1ccc(C#CCn3cnc4ccccc4c3=O)cc1C(c1ccccc1F)=NC2 |  |  | 70 nM |  |
| Cc1nnc2n1-c1ccc(C#CCn3c(C)nc4ccccc4c3=O)cc1C(c1ccccc1F)=NC2 |  |  | 50 nM |  |
| Cc1nnc2n1-c1ccc(C#CCN3C(=O)C(=O)c4ccccc43)cc1C(c1ccccc1Cl)=NC2 |  |  | 350 nM | % inhibition of bronchoconstriction [3]: 100% |
| Cc1nnc2n1-c1ccc(C#CCN3C(=O)Cc4ccccc43)cc1C(c1ccccc1Cl)=NC2 |  |  | < 10 nM |  |
| Cc1nnc2n1-c1ccc(C#CCN3C(=O)CN(C)C(=O)c4ccccc43)cc1C(c1ccccc1F)=NC2 |  |  | 160 nM |  |
| Cc1nnc2n1-c1ccc(C#CCOc3cccnc3)cc1C(c1ccccc1Cl)=NC2 |  |  | 130 nM | ED50 ([3]; Table II): 0.005 mg/kg |
| Cc1nnc2n1-c1ccc(C#CCN3C(=O)C4CCCN4C3=O)cc1C(c1ccccc1F)=NC2 (centres unmarked) |  |  | 200 nM | inhibition in vivo at 3 mg/kg ([2]; po): 99% |
| Cc1nnc2n1-c1ccc(C#CCN3C(=O)c4ccccc4S3(=O)=O)cc1C(c1ccccc1F)=NC2 |  |  | 150 nM |  |
| Cc1nnc2n1-c1ccc(C#CCN3Cc4ccccc4C3=O)cc1C(c1ccccc1F)=NC2 |  |  | 225 nM | inhibition in vivo at 3 mg/kg ([2]; po): 100% |
| Cc1nnc2n1-c1ccc(C#CCn3nc4ccccn4c3=O)cc1C(c1ccccc1F)=NC2 |  |  | 350 nM | inhibition in vivo at 3 mg/kg ([2]; po): 43% |
| Cc1nnc2n1-c1ccc(C#CCn3ncc4ccccc43)cc1C(c1ccccc1F)=NC2 |  |  | < 10 nM |  |
| Cc1nnc2n1-c1ccc(C#CCN3C(=O)C4CC=CCC4C3=O)cc1C(c1ccccc1F)=NC2 (centres unmarked) |  |  | 50 nM | inhibition in vivo at 3 mg/kg ([2]; po): 99% |
| Cc1nnc2n1-c1ccc(C#CCOc3ccccc3)cc1C(c1ccccc1Cl)=NC2 |  |  | < 10 nM | inhibition in vivo at 0.3 mg/kg [2, 7]: 37% |
| Cc1nnc2n1-c1ccc(C#CCN3C(=O)Cc4ccccc43)cc1C(c1ccccc1F)=NC2 |  |  | < 10 nM | inhibition in vivo at 0.3 mg/kg [2, 7]: 32% |
| Cc1nnc2n1-c1ccc(C#CCn3ccc4ccccc43)cc1C(c1ccccc1F)=NC2 |  |  |  | ED50 ([2]; po, Table II): > 0.3 mg/kg |
| Cc1nnc2n1-c1ccc(C#CCn3c(=O)c4c(ncn4C)n(C)c3=O)cc1C(c1ccccc1F)=NC2 |  |  |  | ED50 ([2]; po, Table II): > 0.3 mg/kg |
| Cc1nnc2n1-c1ccc(C#CCCN3C(=O)c4ccccc4C3=O)cc1C(c1ccccc1F)=NC2 |  |  |  | inhibition in vivo at 0.3 mg/kg [2, 7]: 54% |
| O=C1c2ccccc2C(=O)N1CC#Cc1ccc2c(c1)C(c1ccccc1F)=NCc1nnc(C(F)(F)F)n1-2 |  |  |  | ED50 ([2]; po, Table II): 0.3 mg/kg; ED50 ([3]; Table II): 0.44 mg/kg |
| Cc1nnc2n1-c1ccc(C#CCN3C(=O)CCc4ccccc43)cc1C(c1ccccc1F)=N[C@H]2C |  |  | 6 nM | ED50 ([3]; Table II): 0.008 mg/kg |
